Measured values reported in patent US11066396B2 (priority 2016, dated 2021).

How the values were obtained:
HDAC1 = HDAC1 (Homo sapiens (Human), UniProt Q13547); settings: read-out: HDAC1 IC50
HDAC8 = HDAC8 (Homo sapiens (Human), UniProt Q9BY41); settings: read-out: HDAC8 IC50
Chain of HDAC8 (Q9BY41 whole entry): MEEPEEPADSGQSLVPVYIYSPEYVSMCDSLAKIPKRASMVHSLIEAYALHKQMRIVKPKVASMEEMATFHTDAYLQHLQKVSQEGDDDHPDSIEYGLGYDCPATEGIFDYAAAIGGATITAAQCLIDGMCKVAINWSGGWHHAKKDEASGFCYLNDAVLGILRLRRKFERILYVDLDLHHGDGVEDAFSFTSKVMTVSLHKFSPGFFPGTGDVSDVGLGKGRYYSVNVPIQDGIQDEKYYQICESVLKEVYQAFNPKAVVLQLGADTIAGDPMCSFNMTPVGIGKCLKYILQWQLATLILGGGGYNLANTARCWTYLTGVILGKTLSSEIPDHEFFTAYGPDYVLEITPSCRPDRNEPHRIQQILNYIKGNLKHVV

Chain of HDAC1 (Q13547 whole entry): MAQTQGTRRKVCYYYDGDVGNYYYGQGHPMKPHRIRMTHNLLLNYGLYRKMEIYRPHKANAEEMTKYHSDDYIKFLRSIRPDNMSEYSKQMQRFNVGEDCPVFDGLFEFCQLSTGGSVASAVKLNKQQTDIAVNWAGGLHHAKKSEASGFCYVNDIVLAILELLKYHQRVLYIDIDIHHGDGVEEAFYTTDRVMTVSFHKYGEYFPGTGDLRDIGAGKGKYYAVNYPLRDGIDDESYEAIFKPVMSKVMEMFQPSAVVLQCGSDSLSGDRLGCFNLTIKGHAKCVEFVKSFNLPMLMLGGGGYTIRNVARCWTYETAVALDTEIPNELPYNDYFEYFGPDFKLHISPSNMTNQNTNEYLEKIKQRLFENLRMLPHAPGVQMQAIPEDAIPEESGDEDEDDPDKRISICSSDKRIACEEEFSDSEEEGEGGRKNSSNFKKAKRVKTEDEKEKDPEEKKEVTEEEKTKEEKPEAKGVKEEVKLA

| SMILES | IC50 (HDAC1) [µM] | IC50 (HDAC8) [µM] |
| --- | --- | --- |
| CCN1CCCC(C(=O)N(Cc2ccc(-c3noc(C(F)(F)F)n3)cn2)c2cccc(F)c2)C1 (racemic) [Example 57, 1-ethyl-N-(3-fluorophenyl)-N-((5-(5-(trifluoromethyl)-1,2,4-oxadiazol-3-yl)pyridin-2-yl)methyl)piperidine-3-carboxamide] | 0.24 | 2 |
| CC(C)N1CCCC(C(=O)N(Cc2ccc(-c3noc(C(F)(F)F)n3)cn2)c2cccc(F)c2)C1 (racemic) [Example 61, N-(3-fluorophenyl)-1-isopropyl-N-((5-(5-(trifluoromethyl)-1,2,4-oxadiazol-3-yl)pyridin-2-yl)methyl)piperidine-3-carboxamide] | 0.26 | 2 |
| CC1(C)CC(C(=O)N(Cc2ccc(-c3noc(C(F)(F)F)n3)cn2)c2cccc(F)c2)CCO1 (racemic) [Example 63, N-(3-fluorophenyl)-2,2-dimethyl-N-((5-(5-(trifluoromethyl)-1,2,4-oxadiazol-3-yl)pyridin-2-yl)methyl)tetrahydro-2H-pyran-4-carboxamide] | 0.26 | 1.5 |
| Cc1cn(C(C)C(=O)N(Cc2ccc(-c3noc(C(F)(F)F)n3)cn2)c2cccc(F)c2)nn1 (racemic) [Example 64, N-(3-fluorophenyl)-2-(4-methyl-1H-1,2,3-triazol-1-yl)-N-((5-(5-(trifluoromethyl)-1,2,4-oxadiazol-3-yl)pyridin-2-yl)methyl)propanamide] | 0.2 | 2.8 |
| CC(C(=O)N(Cc1ccc(-c2noc(C(F)(F)F)n2)cc1)c1cccc(C(F)(F)F)c1)n1cncn1 (racemic) [Example 66, 2-(1H-1,2,4-triazol-1-yl)-N-(4-(5-(trifluoromethyl)-1,2,4-oxadiazol-3-yl)benzyl)-N-(3-(trifluoromethyl)phenyl)propanamide] | 0.72 | 1.9 |
| O=C(C1CC1c1cncnc1)N(Cc1ccc(-c2noc(C(F)(F)F)n2)cc1)c1cccc(C(F)(F)F)c1 (racemic) [Example 73, 2-(pyrimidin-5-yl)-N-(4-(5-(trifluoromethyl)-1,2,4-oxadiazol-3-yl)benzyl)-N-(3-(trifluoromethyl)phenyl)cyclopropane-1-carboxamide] | 0.94 | 2.2 |
| CC(Cn1cncn1)C(=O)N(Cc1ccc(-c2noc(C(F)(F)F)n2)cc1)c1cccc(C(F)(F)F)c1 (racemic) [Example 79, 2-methyl-3-(1H-1,2,4-triazol-1-yl)-N-(4-(5-(trifluoromethyl)-1,2,4-oxadiazol-3-yl)benzyl)-N-(3-(trifluoromethyl)phenyl)propanamide] | 1.3 | 3.4 |
| O=C(CC1CNCCO1)N(Cc1ccc(-c2noc(C(F)(F)F)n2)cc1)c1cccc(C(F)(F)F)c1 (racemic) [Example 82, 2-(morpholin-2-yl)-N-(4-(5-(trifluoromethyl)-1,2,4-oxadiazol-3-yl)benzyl)-N-(3-(trifluoromethyl)phenyl)acetamide] | 0.86 | 2.5 |
| O=C(C1COCCO1)N(Cc1ccc(-c2noc(C(F)(F)F)n2)cc1)c1cccc(C(F)(F)F)c1 (racemic) [Example 84, N-(4-(5-(trifluoromethyl)-1,2,4-oxadiazol-3-yl)benzyl)-N-(3-(trifluoromethyl)phenyl)-1,4-dioxane-2-carboxamide] | 0.95 | 2.4 |
| O=C(CC1COCCO1)N(Cc1ccc(-c2noc(C(F)(F)F)n2)cc1)c1cccc(C(F)(F)F)c1 (racemic) [Example 95, 2-(1,4-dioxan-2-yl)-N-(4-(5-(trifluoromethyl)-1,2,4-oxadiazol-3-yl)benzyl)-N-(3-(trifluoromethyl)phenyl)acetamide] | 1.3 | 2 |
| O=C1CCC(c2cccc(Cl)c2)N1c1ccc(-c2noc(C(F)(F)F)n2)cc1F (racemic) [Example 116, 5-(3-chlorophenyl)-1-(2-fluoro-4-(5-(trifluoromethyl)-1,2,4-oxadiazol-3-yl)phenyl)pyrrolidin-2-one] | 1.6 | 14 |
| Fc1ccccc1C1COCCN1c1ccc(-c2noc(C(F)(F)F)n2)cn1 (racemic) [Example 135, 3-(2-fluorophenyl)-4-(5-(5-(trifluoromethyl)-1,2,4-oxadiazol-3-yl)pyridin-2-yl)morpholine] | 0.21 | 1.3 |
| Fc1cccc(C2COCCN2c2ccc(-c3noc(C(F)(F)F)n3)cn2)c1 (racemic) [Example 137, 3-(3-fluorophenyl)-4-(5-(5-(trifluoromethyl)-1,2,4-oxadiazol-3-yl)pyridin-2-yl)morpholine] | 0.44 | 2.3 |
| Fc1ccc(C2COCCN2c2ccc(-c3noc(C(F)(F)F)n3)cn2)cc1 (racemic) [Example 142, 3-(4-fluorophenyl)-4-(5-(5-(trifluoromethyl)-1,2,4-oxadiazol-3-yl)pyridin-2-yl)morpholine] | 0.5 | 1.9 |
| CC(C)(C)OC(=O)N1CC(=O)N(c2ccc(-c3noc(C(F)(F)F)n3)cc2)[C@H](c2ccccc2)C1 (racemic) [Example 163, tert-butyl 3-oxo-5-phenyl-4-(4-(5-(trifluoromethyl)-1,2,4-oxadiazol-3-yl)phenyl)piperazine-1-carboxylate] | 1.7 | 4.3 |
| FC(F)(F)c1nc(-c2ccnc(OC3CCCc4ccc(Cl)nc43)c2)no1 (racemic) [Example 226, 2-chloro-8-({4-[5-(trifluoromethyl)-1,2,4-oxadiazol-3-yl]pyridin-2-yl}oxy)-5,6,7,8-tetrahydroquinoline] | 1.1 | 0.85 |
| CC1(C)CC(c2ccccc2)N(c2ccc(-c3noc(C(F)(F)F)n3)cc2F)C1=O (racemic) [Example 312, 1-{2-fluoro-4-[5-(trifluoromethyl)-1,2,4-oxadiazol-3-yl]phenyl}-3,3-dimethyl-5-phenylpyrrolidin-2-one] | 1.4 | 45 |
| O=C1CCC(c2c(F)cccc2F)N1c1ccc(-c2noc(C(F)(F)F)n2)cc1F (racemic) [Example 314, 5-(2,6-difluorophenyl)-1-{2-fluoro-4-[5-(trifluoromethyl)-1,2,4-oxadiazol-3-yl]phenyl}pyrrolidin-2-one] | 11 | 6.5 |
| COc1ccccc1C1CCC(=O)N1c1ccc(-c2noc(C(F)(F)F)n2)cc1F (racemic) [Example 315, 1-{2-fluoro-4-[5-(trifluoromethyl)-1,2,4-oxadiazol-3-yl]phenyl}-5-(2-methoxyphenyl)pyrrolidin-2-one] | 2.1 | 8 |
| O=C1CCC(c2ccc(-c3noc(C(F)(F)F)n3)cc2)N1c1ccccc1F (racemic) [Example 320, 1-(2-fluorophenyl)-5-{4-[5-(trifluoromethyl)-1,2,4-oxadiazol-3-yl]phenyl}pyrrolidin-2-one] | 0.88 | 12 |
| CC1(Cc2ccc(-c3noc(C(F)(F)F)n3)cc2)C(=O)Nc2ccc(F)cc21 (racemic) [Example 346, 5-fluoro-3-methyl-3-{4-[5-(trifluoromethyl)-1,2,4-oxadiazol-3-yl]benzyl}-1,3-dihydro-2H-indol-2-one] | 1.2 | 15 |
| Cc1nc2c(c(=O)[nH]1)CC(NCc1ccc(-c3noc(C(F)(F)F)n3)cc1)CC2 (racemic) [Example 350, 2-methyl-6-[({4-[5-(trifluoromethyl)-1,2,4-oxadiazol-3-yl]phenyl}methyl)amino]-5,6,7,8-tetrahydroquinazolin-4(3H)-one] | 1.2 | 0.25 |
| FC(F)(F)c1nc(-c2ccc(CNC3CCc4ncccc4C3)cc2)no1 (racemic) [Example 351, N-({4-[5-(trifluoromethyl)-1,2,4-oxadiazol-3-yl]phenyl}methyl)-5,6,7,8-tetrahydroquinolin-6-amine] | 0.52 | 0.68 |
| FC(F)(F)c1nc(-c2ccc(CNC3CCc4[nH]nc(C(F)(F)F)c4C3)cc2)no1 (racemic) [Example 353, 3-(trifluoromethyl)-N-({4-[5-(trifluoromethyl)-1,2,4-oxadiazol-3-yl]phenyl}methyl)-4,5,6,7-tetrahydro-1H-indazol-5-amine] | 0.41 | 0.9 |
| FC(F)(F)c1nc(-c2ccc(CNC3CCN(c4ncccn4)C3)cc2)no1 (racemic) [Example 354, 1-(pyrimidin-2-yl)-N-({4-[5-(trifluoromethyl)-1,2,4-oxadiazol-3-yl]phenyl}methyl)pyrrolidin-3-amine] | 1.6 | 0.68 |
| FC(F)(F)c1nc(-c2ccc(CNC3CCc4ncccc4C3)nc2)no1 (racemic) [Example 371, N-({5-[5-(trifluoromethyl)-1,2,4-oxadiazol-3-yl]pyridin-2-yl}methyl)-5,6,7,8-tetrahydroquinolin-6-amine] | 0.45 | 1.6 |
| Cc1n[nH]c2c1CC(NCc1ccc(-c3noc(C(F)(F)F)n3)cn1)CC2 (racemic) [Example 372, 3-methyl-N-({5-[5-(trifluoromethyl)-1,2,4-oxadiazol-3-yl]pyridin-2-yl}methyl)-4,5,6,7-tetrahydro-1H-indazol-5-amine] | 0.4 | 2.9 |
| O=C1NCCc2ccccc2C1NCc1ccc(-c2noc(C(F)(F)F)n2)cn1 (racemic) [Example 373, 1-[({5-[5-(trifluoromethyl)-1,2,4-oxadiazol-3-yl]pyridin-2-yl}methyl)amino]-1,3,4,5-tetrahydro-2H-3-benzazepin-2-one] | 1.3 | 2.8 |
| O=C1CCC(NCc2ccc(-c3noc(C(F)(F)F)n3)cn2)c2ccccc2N1 (racemic) [Example 374, 5-[({5-[5-(trifluoromethyl)-1,2,4-oxadiazol-3-yl]pyridin-2-yl}methyl)amino]-1,3,4,5-tetrahydro-2H-1-benzazepin-2-one] | 3.2 | 6.9 |
| O=C1Nc2ccccc2CC1NCc1ccc(-c2noc(C(F)(F)F)n2)cn1 (racemic) [Example 375, 3-[({5-[5-(trifluoromethyl)-1,2,4-oxadiazol-3-yl]pyridin-2-yl}methyl)amino]-3,4-dihydroquinolin-2(1H)-one] | 1 | 2.6 |
